{"source": "patent US10688099B2", "about": "“Methods for modulating the amount of RNA transcripts” (PTC Therapeutics, Inc., priority 2013, dated 2020)", "test_system": "RNA isoforms in PNN 1-46 SMA type I patient-derived fibroblasts", "test": "RNA Abundance Modulation (RNA isoform abundance, iFPM, HiSeq RNA sequencing)", "assay_type": "cell-based, human", "settings": "3 μM", "description": "Cells from a cell line of interest are cultured in conditions sufficient to yield the number of cells capable of generating enough RNA for subsequent sequencing steps. Cells from the tested cell line are contacted with a compound described herein.\nTo culture said cells, they are seeded, at appropriate concentrations in a volume of media in a cell culture container and incubated for 4, 5, 6, 7, 8, 9, 10, or more hours. A concentrated solution of compound in a vehicle (e.g., DMSO) is then added in sufficient volume to result in the intended final concentration of the compound, for example 100 nM, 500 nM, 1 μM, 5 μM, 10 μM, 15 μM, 20 μM, or more. The cells may also be treated with vehicle alone, as a control. A number of replicates of each concentration or control may be made (e.g., 2 replicates). The cells are then incubated at a constant temperature appropriate for cell culture of the particular cell line (e.g., 37° C.) for 6, 12, 18, 24, 48, or more hours. After incubation, the growth medium is removed and the cells are washed with the appropriate buffer (e.g., PBS). Cells are then removed from adherence to the cell culture container by treatment with a solution containing trypsin, and the trypsin subsequently quenched with the appropriate volume of buffer (e.g., DMEM-FBS). The cells are then pelleted with gentle centrifugation (e.g., ≤90×g centrifugal force) and resuspended in a buffer to lyse the cells for extraction of RNA. The cell lysates may then be frozen (e.g., at −80° C.) or, alternately, may immediately be used in a procedure to purify the RNA (e.g. by use of the RNEASY PLUS® minikit). The RNA from cell lysates is eluted in the appropriate volume of buffer (e.g., RNEASE-FREE H2O®). The resulting purified RNA may then be sequenced (e.g., using RNASeq) or analyzed using a human exon array (e.g., by GENECHIP® human exon array) to determine changes in the RNA levels in those cells treated with compound compared to those cells treated only with DMSO. The purified RNA may also be quantified by other methods known in the art.\nUsing the RNA data obtained from sequencing, exon array, or other methods, a statistical analysis can reveal changes in the RNA levels of compound-treated compared with control. For example, t-test p-values may be calculated for the data obtained through sequencing and exon array methods in order to compare compound-treated cells to those treated with the DMSO control. […] Analysis of the sequencing and exon array data may then also yield predictions about the cause of the aberrant amount of an RNA transcript in the cells (e.g., perturbation of RNA splicing, RNA transcription, or RNA stability). These predictions may be further confirmed by methods known in the art. For example, RT-PCR and RT-qPCR may be used to confirm the change in amount of RNA transcripts for one or more particular transcripts of interest.\nFollowing the methods described above in Example 1, PNN 1-46 SMA type I patient-derived fibroblasts were treated with 300 nM or 3 μM Compounds 774 and 808 in 0.5% DMSO.\n700,000 cells were seeded in 10 mL of medium (DMEM plus 10% FBS) in a T-75 flask. Cells were allowed to attach for at least 4 hrs, after which 50 μL of a 200× compound solution (100% DMSO) was added to each well, and the plate was incubated at 37° C. for 24 hrs.\nAt the end of the incubation period, the supernatant was removed and the cells where washed with PBS. TrypLE (Invitrogen) express solution was added (e.g. 1.5 mL per one T75 flask). The flasks were incubated for 3 to 5 min at 37° C. The trypsin was then quenched, e.g., by adding 10 mL DMEM-FBS.\nNext, the cells were pelleted using gentle centrifugation without exceeding 90×g centrifugal force. The supernatant was removed and the cell pellet was re-suspended in 600 μL RLT buffer (the RLT buffer was supplemented with beta-mercaptoethanol according to the RNeasy protocol manual) by pipetting up and down until the pellet was completely dissolved […]"}
{"molecule": "CCc1nc(C)cn2nc(-c3cc(=O)n4cc(C5CCN(C)CC5)cc(C)c4n3)cc12", "note": "[Compound 774]", "values": [{"measurement": "L2FC (x + 1)", "setting": "TIMP2 AK294290", "value": "−6.520"}, {"measurement": "L2abs (Cpd-DMSO)", "setting": "TIMP2 AK294290", "value": 6.50}, {"measurement": "abs (Cpd-DMSO)", "setting": "TIMP2 AK294290", "value": 91, "unit": "iFPM"}, {"measurement": "amp FC (x + 1)", "setting": "TIMP2 AK294290", "value": 91.79}, {"measurement": "ave Cpd", "setting": "TIMP2 AK294290", "value": 0, "unit": "iFPM"}, {"measurement": "FC (x + 1)", "setting": "TIMP2 BC039613", "value": 0.9284}, {"measurement": "L2FC (x + 1)", "setting": "TIMP2 BC039613", "value": "−0.107"}, {"measurement": "L2abs (Cpd-DMSO)", "setting": "TIMP2 BC039613", "value": 11.17}, {"measurement": "abs (Cpd-DMSO)", "setting": "TIMP2 BC039613", "value": 2306, "unit": "iFPM"}, {"measurement": "amp FC (x + 1)", "setting": "TIMP2 BC039613", "value": 1.08}, {"measurement": "ave Cpd", "setting": "TIMP2 BC039613", "value": 29887, "unit": "iFPM"}, {"measurement": "FC (x + 1)", "setting": "TIMP2 NM_003255", "value": 0.9585}, {"measurement": "L2FC (x + 1)", "setting": "TIMP2 NM_003255", "value": "−0.061"}, {"measurement": "L2abs (Cpd-DMSO)", "setting": "TIMP2 NM_003255", "value": 9.77}, {"measurement": "abs (Cpd-DMSO)", "setting": "TIMP2 NM_003255", "value": 876, "unit": "iFPM"}, {"measurement": "amp FC (x + 1)", "setting": "TIMP2 NM_003255", "value": 1.04}, {"measurement": "ave Cpd", "setting": "TIMP2 NM_003255", "value": 20235, "unit": "iFPM"}, {"measurement": "FC (x + 1)", "setting": "TLK1 AK091975", "value": 0.7110}, {"measurement": "L2FC (x + 1)", "setting": "TLK1 AK091975", "value": "−0.492"}, {"measurement": "L2abs (Cpd-DMSO)", "setting": "TLK1 AK091975", "value": 6.56}, {"measurement": "abs (Cpd-DMSO)", "setting": "TLK1 AK091975", "value": 95, "unit": "iFPM"}, {"measurement": "amp FC (x + 1)", "setting": "TLK1 AK091975", "value": 1.41}, {"measurement": "ave Cpd", "setting": "TLK1 AK091975", "value": 232, "unit": "iFPM"}, {"measurement": "FC (x + 1)", "setting": "TLK1 BX537631", "value": 1.2332}, {"measurement": "L2FC (x + 1)", "setting": "TLK1 BX537631", "value": 0.302}, {"measurement": "L2abs (Cpd-DMSO)", "setting": "TLK1 BX537631", "value": 0.14}, {"measurement": "abs (Cpd-DMSO)", "setting": "TLK1 BX537631", "value": 1, "unit": "iFPM"}, {"measurement": "amp FC (x + 1)", "setting": "TLK1 BX537631", "value": 1.23}, {"measurement": "ave Cpd", "setting": "TLK1 BX537631", "value": 5, "unit": "iFPM"}, {"measurement": "FC (x + 1)", "setting": "TLK1 E09283", "value": 1.1041}, {"measurement": "L2FC (x + 1)", "setting": "TLK1 E09283", "value": 0.143}, {"measurement": "L2abs (Cpd-DMSO)", "setting": "TLK1 E09283", "value": 1.54}, {"measurement": "abs (Cpd-DMSO)", "setting": "TLK1 E09283", "value": 3, "unit": "iFPM"}, {"measurement": "amp FC (x + 1)", "setting": "TLK1 E09283", "value": 1.10}, {"measurement": "ave Cpd", "setting": "TLK1 E09283", "value": 30, "unit": "iFPM"}, {"measurement": "FC (x + 1)", "setting": "TLK1 NM_012290", "value": 1.4535}, {"measurement": "L2FC (x + 1)", "setting": "TLK1 NM_012290", "value": 0.540}, {"measurement": "L2abs (Cpd-DMSO)", "setting": "TLK1 NM_012290", "value": 8.52}, {"measurement": "abs (Cpd-DMSO)", "setting": "TLK1 NM_012290", "value": 367, "unit": "iFPM"}, {"measurement": "amp FC (x + 1)", "setting": "TLK1 NM_012290", "value": 1.45}, {"measurement": "ave Cpd", "setting": "TLK1 NM_012290", "value": 1174, "unit": "iFPM"}, {"measurement": "FC (x + 1)", "setting": "TLK1 NM_001136554", "value": 0.3744}, {"measurement": "L2FC (x + 1)", "setting": "TLK1 NM_001136554", "value": "−1.417"}, {"measurement": "L2abs (Cpd-DMSO)", "setting": "TLK1 NM_001136554", "value": 8.77}, {"measurement": "abs (Cpd-DMSO)", "setting": "TLK1 NM_001136554", "value": 437, "unit": "iFPM"}, {"measurement": "amp FC (x + 1)", "setting": "TLK1 NM_001136554", "value": 2.67}, {"measurement": "ave Cpd", "setting": "TLK1 NM_001136554", "value": 260, "unit": "iFPM"}, {"measurement": "FC (x + 1)", "setting": "TLK1 NM_001136555", "value": 4.0350}, {"measurement": "L2FC (x + 1)", "setting": "TLK1 NM_001136555", "value": 2.013}, {"measurement": "L2abs (Cpd-DMSO)", "setting": "TLK1 NM_001136555", "value": 6.40}, {"measurement": "abs (Cpd-DMSO)", "setting": "TLK1 NM_001136555", "value": 84, "unit": "iFPM"}, {"measurement": "amp FC (x + 1)", "setting": "TLK1 NM_001136555", "value": 4.04}, {"measurement": "ave Cpd", "setting": "TLK1 NM_001136555", "value": 111, "unit": "iFPM"}, {"measurement": "FC (x + 1)", "setting": "TMEM154 NM_152680", "value": 2.2609}, {"measurement": "L2FC (x + 1)", "setting": "TMEM154 NM_152680", "value": 1.177}, {"measurement": "L2abs (Cpd-DMSO)", "setting": "TMEM154 NM_152680", "value": 8.26}, {"measurement": "abs (Cpd-DMSO)", "setting": "TMEM154 NM_152680", "value": 306, "unit": "iFPM"}, {"measurement": "amp FC (x + 1)", "setting": "TMEM154 NM_152680", "value": 2.26}, {"measurement": "ave Cpd", "setting": "TMEM154 NM_152680", "value": 548, "unit": "iFPM"}, {"measurement": "FC (x + 1)", "setting": "TNS3 NM_022748", "value": 0.1472}, {"measurement": "L2FC (x + 1)", "setting": "TNS3 NM_022748", "value": "−2.764"}, {"measurement": "L2abs (Cpd-DMSO)", "setting": "TNS3 NM_022748", "value": 9.92}, {"measurement": "abs (Cpd-DMSO)", "setting": "TNS3 NM_022748", "value": 971, "unit": "iFPM"}, {"measurement": "amp FC (x + 1)", "setting": "TNS3 NM_022748", "value": 6.79}, {"measurement": "ave Cpd", "setting": "TNS3 NM_022748", "value": 167, "unit": "iFPM"}, {"measurement": "FC (x + 1)", "setting": "TOMM5 CCDS47968", "value": 0.9090}, {"measurement": "L2FC (x + 1)", "setting": "TOMM5 CCDS47968", "value": "−0.138"}, {"measurement": "L2abs (Cpd-DMSO)", "setting": "TOMM5 CCDS47968", "value": "−2.28"}, {"measurement": "abs (Cpd-DMSO)", "setting": "TOMM5 CCDS47968", "value": 0, "unit": "iFPM"}, {"measurement": "amp FC (x + 1)", "setting": "TOMM5 CCDS47968", "value": 1.10}, {"measurement": "ave Cpd", "setting": "TOMM5 CCDS47968", "value": 1, "unit": "iFPM"}, {"measurement": "FC (x + 1)", "setting": "TOMM5 CR627326", "value": 0.4244}, {"measurement": "L2FC (x + 1)", "setting": "TOMM5 CR627326", "value": "−1.236"}, {"measurement": "L2abs (Cpd-DMSO)", "setting": "TOMM5 CR627326", "value": 2.64}, {"measurement": "abs (Cpd-DMSO)", "setting": "TOMM5 CR627326", "value": 6, "unit": "iFPM"}]}
